According to BigSolDB 2.1:

COC(=O)Nc1nc2ccccc2[nH]1
solubility (mole fraction)
Conditions	278.15 K	283.15 K	288.15 K	293.15 K	298.15 K	303.15 K	308.15 K	313.15 K	318.15 K
in DMF	0.000786	0.000861	0.000931	0.00101	0.0011	0.00119	0.00128	0.00138	0.00148
in ethanol	8.29e-06	1.14e-05	1.66e-05	2.28e-05	3.16e-05	4.28e-05	5.74e-05	7.63e-05	9.98e-05
in methanol	3.23e-05	4.07e-05	5.29e-05	6.59e-05	7.95e-05	9.95e-05	0.000121	0.000147	0.000176
in n-propanol	3.28e-06	4.97e-06	8.18e-06	1.24e-05	1.85e-05	2.73e-05	4.04e-05	5.82e-05	8.34e-05
in water	3.3e-07	4e-07	4.91e-07	6e-07	7.35e-07	8.59e-07	1.02e-06	1.21e-06	1.43e-06
